Article PMC12214830, “The human RIF1-Long isoform interacts with BRCA1 to promote recombinational fork repair under DNA replication stress” (Nature Communications, 2025)

What was measured:
[1] = test system: tandem BRCT domains of TOPBP1; assay: fluorescence polarisation, tandem BRCT domains of TOPBP1; format: binding; conditions: peptide 200 nM, 25 mM HEPES pH 7.5, 200 mM NaCl
Description: (§1) Recombinant BRCT2 domain proteins were expressed as N-terminally HIS-SUMO tagged constructs from a modified pET15b vector in Escherichia coli BL21(DE3) host strain (Novagen). Cell pellets were re-suspended in lysis buffer containing 50 mM HEPES pH 7.5, 200 mM NaCl, 0.5 mM TCEP and supplemented with 10 U DNASE Turbo (ThermoFisher), then disrupted by sonication and the resulting lysate clarified by centrifugation at 40,000 × g for 60 min at 4 °C. […]
(§2) For Fluorescence Polarisation experiments, a Superdex 75 16/60 size exclusion column (GE Healthcare) was used to purify the His6-SUMO-BRCT2 proteins to homogeneity in 25 mM HEPES pH 7.5, 200 mM NaCl, 1 mM EDTA, 0.25 mM TCEP, 0.02% (v/v) Tween-20.
(§3) Fluorescein-labelled peptides (Flu-RIF1pS2265 Flu-[…](pS)PKFKSSK, Flu-BRIP1pS990 Flu-[…](pS)PTFNKQT and Flu-H2AXpS140 Flu-[…](pS)QEY, where (pS) is phosphorylated Serine) (Peptide Protein Research Ltd, Bishops Waltham, UK) at a concentration of 200 nM, were incubated at room temperature with increasing concentrations of His6-SUMO-BRCT2 protein in 25 mM HEPES pH 7.5, 200 mM NaCl, 1 mM EDTA, 0.25 mM TCEP, 0.02% (v/v) Tween-20 in a black 96-well polypropylene plate (VWR, Lutterworth, UK). […] Fluorescence polarisation was measured in a CLARIOstar multimode microplate reader (BMG Labtech GmbH, Offenburg, Germany). […]

[2] = test system: tandem BRCT domains of 53BP1; assay: fluorescence polarisation, tandem BRCT domains of 53BP1; format: binding; conditions: peptide 200 nM, 25 mM HEPES pH 7.5, 200 mM NaCl
Description: as §1, §2, §3

[3] = test system: tandem BRCT domains of MDC1; assay: fluorescence polarisation, tandem BRCT domains of MDC1; format: binding; conditions: peptide 200 nM, 25 mM HEPES pH 7.5, 200 mM NaCl
Description: as §1, §2, §3

[4] = test system: BRCA1-BRCT domain (His6-SUMO-BRCT2); assay: fluorescence polarisation, tandem BRCT domains of BRCA1; format: binding, human
Description: Recombinant BRCT2 domain proteins were expressed as N-terminally HIS-SUMO tagged constructs from a modified pET15b vector in Escherichia coli BL21(DE3) host strain (Novagen). Cell pellets were re-suspended in lysis buffer containing 50 mM HEPES pH 7.5, 200 mM NaCl, 0.5 mM TCEP and supplemented with 10 U DNASE Turbo (ThermoFisher), then disrupted by sonication and the resulting lysate clarified by centrifugation at 40,000 × g for 60 min at 4 °C. The supernatant was applied to a 5 ml HiTrap TALON crude column (GE Healthcare, Little Chalfont, UK), washed first with buffer containing 50 mM HEPES pH 7.5, 1000 mM NaCl, 0.5 mM TCEP, followed by lysis buffer supplemented with 10 mM imidazole, with any retained protein then eluted by application of the same buffer supplemented with 250 mM imidazole. The eluted protein was concentrated before further purification by size exclusion chromatography.
as §2
Fluorescein-labelled peptides (Flu-RIF1pS2265 Flu-[…](pS)PKFKSSK, Flu-BRIP1pS990 Flu-[…](pS)PTFNKQT and Flu-H2AXpS140 Flu-[…](pS)QEY, where (pS) is phosphorylated Serine) (Peptide Protein Research Ltd, Bishops Waltham, UK) at a concentration of 200 nM, were incubated at room temperature with increasing concentrations of His6-SUMO-BRCT2 protein in 25 mM HEPES pH 7.5, 200 mM NaCl, 1 mM EDTA, 0.25 mM TCEP, 0.02% (v/v) Tween-20 in a black 96-well polypropylene plate (VWR, Lutterworth, UK). Incubation with Lambda phosphatase (NEB, Hitchin, UK) supplemented with 1 mM MnCl2 was used to remove the phosphorylation on the peptides. Fluorescence polarisation was measured in a CLARIOstar multimode microplate reader (BMG Labtech GmbH, Offenburg, Germany). Binding curves represent the mean of 4 independent experiments, with error bars of 1 standard deviation. […]

## Flu-GYGFLSPGSR(pS)PKFKSSK [RIF1-L phosphoS^2265PKF peptide, fluorescein-labelled RIF1-L-derived phosphopeptide]
[1]
  binding to tandem BRCT domains of TOPBP1: did not bind
[2]
  binding to tandem BRCT domains of 53BP1: did not bind
[3]
  binding to tandem BRCT domains of MDC1: did not bind
[4]; fluorescein-labelled peptide 200 nM, 25 mM HEPES pH 7.5, 200 mM NaCl, room temperature, mean of 4 independent experiments
  binding to BRCA1-BRCT: bound strongly
[4]; peptide 200 nM, 25 mM HEPES pH 7.5, 200 mM NaCl
  interaction affinity relative to BRIP1 phospho-peptide: comparable to that for a phospho-peptide from BRIP1
[4]; peptide treated with Lambda phosphatase, 1 mM MnCl2
  binding to BRCA1-BRCT after λ phosphatase: abolished binding
